Measurements from US9452986B2, “6-heteroaryloxy- or 6-aryloxy-quinoline-2-carboxamides and method of use” (AbbVie Inc., priority 2014, dated 2016).

Molecular target: recombinant human Nav1.7 (Homo sapiens (Human), UniProt Q15858)
Assay: FRET-based membrane potential assay, recombinant human sodium channel Nav1.7
Type: cell-based
Settings: FRET-Membrane Potential Nav1.7 IC50
Method in brief: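 Channel activation used veratridine at its EC80, set by a dilution curve each experiment, together with Leiurus scorpion venom, added 3 min after compound. Membrane-potential ratio signals from FLIPR Tetra in HEPES-buffered HBSS were fitted to a four-parameter Hill equation for percent inhibition and IC50.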

Sequence of recombinant human Nav1.7 (Q15858 whole entry): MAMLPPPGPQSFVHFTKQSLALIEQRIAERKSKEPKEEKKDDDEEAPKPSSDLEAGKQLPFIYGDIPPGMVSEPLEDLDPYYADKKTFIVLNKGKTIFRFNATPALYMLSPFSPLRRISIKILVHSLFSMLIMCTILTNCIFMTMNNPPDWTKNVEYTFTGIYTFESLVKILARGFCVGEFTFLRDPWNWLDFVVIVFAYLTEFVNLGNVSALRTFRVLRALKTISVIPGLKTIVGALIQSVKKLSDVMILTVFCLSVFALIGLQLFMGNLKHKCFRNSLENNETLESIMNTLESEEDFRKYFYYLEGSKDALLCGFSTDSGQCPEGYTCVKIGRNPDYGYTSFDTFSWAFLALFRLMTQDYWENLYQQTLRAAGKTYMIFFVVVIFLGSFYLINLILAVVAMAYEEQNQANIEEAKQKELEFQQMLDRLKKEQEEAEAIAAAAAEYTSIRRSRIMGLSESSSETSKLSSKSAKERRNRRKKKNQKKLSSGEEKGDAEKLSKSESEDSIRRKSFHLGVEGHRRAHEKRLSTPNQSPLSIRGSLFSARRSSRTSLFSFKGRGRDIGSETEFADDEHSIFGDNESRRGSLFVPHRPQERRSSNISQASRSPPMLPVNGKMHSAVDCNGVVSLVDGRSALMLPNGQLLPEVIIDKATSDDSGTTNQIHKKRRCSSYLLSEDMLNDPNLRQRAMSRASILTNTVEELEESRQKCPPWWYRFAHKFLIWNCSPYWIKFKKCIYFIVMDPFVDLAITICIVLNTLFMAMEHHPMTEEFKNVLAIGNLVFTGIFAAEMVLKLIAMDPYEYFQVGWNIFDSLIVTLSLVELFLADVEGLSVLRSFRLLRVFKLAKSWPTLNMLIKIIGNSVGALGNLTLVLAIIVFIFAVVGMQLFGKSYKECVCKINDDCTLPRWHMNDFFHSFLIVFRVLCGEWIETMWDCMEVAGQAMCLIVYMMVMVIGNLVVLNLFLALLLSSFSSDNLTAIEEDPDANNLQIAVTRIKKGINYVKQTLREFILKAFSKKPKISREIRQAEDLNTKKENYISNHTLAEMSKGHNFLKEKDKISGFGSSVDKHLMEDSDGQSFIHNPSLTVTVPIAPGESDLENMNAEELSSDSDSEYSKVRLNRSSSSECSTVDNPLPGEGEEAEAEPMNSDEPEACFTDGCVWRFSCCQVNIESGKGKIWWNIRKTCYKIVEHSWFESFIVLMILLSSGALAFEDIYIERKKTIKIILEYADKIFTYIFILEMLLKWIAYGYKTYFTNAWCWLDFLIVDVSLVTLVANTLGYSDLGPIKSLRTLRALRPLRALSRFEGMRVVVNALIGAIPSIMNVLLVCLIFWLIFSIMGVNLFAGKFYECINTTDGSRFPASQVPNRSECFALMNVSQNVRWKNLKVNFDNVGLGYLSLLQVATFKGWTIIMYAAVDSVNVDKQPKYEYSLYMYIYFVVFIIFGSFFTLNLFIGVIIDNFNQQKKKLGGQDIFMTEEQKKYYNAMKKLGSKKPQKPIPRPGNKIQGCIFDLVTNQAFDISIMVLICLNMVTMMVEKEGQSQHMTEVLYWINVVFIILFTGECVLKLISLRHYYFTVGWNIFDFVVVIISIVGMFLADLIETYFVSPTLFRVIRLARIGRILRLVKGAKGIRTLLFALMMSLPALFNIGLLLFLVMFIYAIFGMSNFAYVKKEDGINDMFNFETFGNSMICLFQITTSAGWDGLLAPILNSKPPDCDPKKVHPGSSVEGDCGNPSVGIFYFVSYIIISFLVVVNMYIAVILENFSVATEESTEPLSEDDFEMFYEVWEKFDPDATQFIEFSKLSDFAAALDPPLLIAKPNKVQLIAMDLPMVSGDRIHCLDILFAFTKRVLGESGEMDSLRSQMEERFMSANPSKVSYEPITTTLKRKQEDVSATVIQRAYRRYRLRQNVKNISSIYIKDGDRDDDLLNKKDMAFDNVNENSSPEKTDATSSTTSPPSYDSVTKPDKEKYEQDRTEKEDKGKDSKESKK

| SMILES | IC50 [µM] |
| --- | --- |
| O=C(c1ccc2cc(Oc3ccc(C(F)(F)F)nc3)ccc2n1)N1C[C@@H](O)[C@@H](O)C1 [Example 546, [cis-3,4-dihydroxypyrrolidin-1-yl](6-{[6-(trifluoromethyl)pyridin-3-yl]oxy}quinolin-2-yl)methanone] | 10.1 |

Same assay, conditions: HEK293 cells stably expressing recombinant human Nav1.7; veratridine + scorpion venom depolarization; read-out: FRET-Membrane Potential Nav1.7 IC50

| SMILES | IC50 [µM] |
| --- | --- |
| O=C(c1ccc2cc(Oc3ccc(C(F)(F)F)cn3)ccc2n1)N1CC2(CCCOC2)C1 [Example 533, 6-oxa-2-azaspiro[3.5]non-2-yl(6-{[5-(trifluoromethyl)pyridin-2-yl]oxy}quinolin-2-yl)methanone] | 2.4 |
| CS(=O)(=O)C1CN(C(=O)c2ccc3cc(Oc4ccc(C(F)(F)F)nc4)ccc3n2)C1 [Example 534, [3-(methylsulfonyl)azetidin-1-yl](6-{[6-(trifluoromethyl)pyridin-3-yl]oxy}quinolin-2-yl)methanone] | 1.97 |
| O=C(NC1CCS(=O)(=O)CC1)c1ccc2cc(Oc3ccc(C(F)(F)F)nc3)ccc2n1 [Example 535, N-(1,1-dioxidotetrahydro-2H-thiopyran-4-yl)-6-{[6-(trifluoromethyl)pyridin-3-yl]oxy}quinoline-2-carboxamide] | > 20 |
| O=C(NC1COC1)c1ccc2cc(Oc3ccc(C(F)(F)F)nc3)ccc2n1 [Example 536, N-(oxetan-3-yl)-6-{[6-(trifluoromethyl)pyridin-3-yl]oxy}quinoline-2-carboxamide] | 1.15 |
| O=C(N[C@H]1CS(=O)(=O)C[C@H]1O)c1ccc2cc(Oc3ccc(C(F)(F)F)nc3)ccc2n1 [Example 537, N-[(3R,4S)-4-hydroxy-1,1-dioxidotetrahydrothiophen-3-yl]-6-{[6-(trifluoromethyl)pyridin-3-yl]oxy}quinoline-2-carboxamide] | 2.71 |
| O=C(N[C@@H]1CS(=O)(=O)C[C@H]1O)c1ccc2cc(Oc3ccc(C(F)(F)F)nc3)ccc2n1 [Example 538, N-[(3S,4S)-4-hydroxy-1,1-dioxidotetrahydrothiophen-3-yl]-6-{[6-(trifluoromethyl)pyridin-3-yl]oxy}quinoline-2-carboxamide] | 3.16 |
| O=C(c1ccc2cc(Oc3ccc(C(F)(F)F)nc3)ccc2n1)N1CC=CC1 [Example 539, 2,5-dihydro-1H-pyrrol-1-yl(6-{[6-(trifluoromethyl)pyridin-3-yl]oxy}quinolin-2-yl)methanone] | > 20 |
| COC(C)(C)CNC(=O)c1ccc2cc(Oc3ccc(C(F)(F)F)cn3)ccc2n1 [Example 541, N-(2-methoxy-2-methylpropyl)-6-{[5-(trifluoromethyl)pyridin-2-yl]oxy}quinoline-2-carboxamide] | 1.19 |
| O=C(c1ccc2cc(Oc3ccc(C(F)(F)F)nc3)ccc2n1)N1CCN[C@@H](CO)C1 [Example 544, [(3R)-3-(hydroxymethyl)piperazin-1-yl](6-{[6-(trifluoromethyl)pyridin-3-yl]oxy}quinolin-2-yl)methanone] | 3.45 |
| O=C(c1ccc2cc(Oc3ccc(C(F)(F)F)nc3)ccc2n1)N1CCN[C@H](CO)C1 [Example 545, [(3S)-3-(hydroxymethyl)piperazin-1-yl](6-{[6-(trifluoromethyl)pyridin-3-yl]oxy}quinolin-2-yl)methanone] | 3.7 |
| O=C(c1ccc2cc(Oc3ccc(C(F)(F)F)nc3)ccc2n1)N1CC[C@@H](F)C1 [Example 548, [(3R)-3-fluoropyrrolidin-1-yl](6-{[6-(trifluoromethyl)pyridin-3-yl]oxy}quinolin-2-yl)methanone] | 4.05 |
| C[C@H]1CN(C(=O)c2ccc3cc(Oc4ccc(C(F)(F)F)nc4)ccc3n2)CCN1 [Example 549, [(3S)-3-methylpiperazin-1-yl](6-{[6-(trifluoromethyl)pyridin-3-yl]oxy}quinolin-2-yl)methanone] | 2.49 |
| O=C(c1ccc2cc(Oc3ccc(C(F)(F)F)nc3)ccc2n1)N1CC[C@H](F)C1 [Example 550, [(3S)-3-fluoropyrrolidin-1-yl](6-{[6-(trifluoromethyl)pyridin-3-yl]oxy}quinolin-2-yl)methanone] | 10.7 |
| CC1CN(C(=O)c2ccc3cc(Oc4ccc(C(F)(F)F)cn4)ccc3n2)CC(C)N1 (stereo not shown) [Example 552, (3,5-dimethylpiperazin-1-yl)(6-{[5-(trifluoromethyl)pyridin-2-yl]oxy}quinolin-2-yl)methanone] | 0.615 |
| O=C(c1ccc2cc(Oc3ccc(C(F)(F)F)nc3)ccc2n1)N1CC(N2CCOCC2)C1 [Example 554, [3-(morpholin-4-yl)azetidin-1-yl](6-{[6-(trifluoromethyl)pyridin-3-yl]oxy}quinolin-2-yl)methanone] | 14.1 |
| O=C(NC1CC(F)(F)C1)c1ccc2cc(Oc3ccc(C(F)(F)F)nc3)ccc2n1 [Example 555, N-(3,3-difluorocyclobutyl)-6-{[6-(trifluoromethyl)pyridin-3-yl]oxy}quinoline-2-carboxamide] | 2.7 |
| CC1(O)CCN(C(=O)CNC(=O)c2ccc3cc(Oc4ccc(C(F)(F)F)cn4)ccc3n2)C1 (stereo not shown) [Example 561, N-[2-(3-hydroxy-3-methylpyrrolidin-1-yl)-2-oxoethyl]-6-{[5-(trifluoromethyl)pyridin-2-yl]oxy}quinoline-2-carboxamide] | 3.47 |
| O=C(NCC(=O)N1C[C@H](O)[C@@H](O)C1)c1ccc2cc(Oc3ccc(C(F)(F)F)cn3)ccc2n1 [Example 562, N-{2-[(3S,4S)-3,4-dihydroxypyrrolidin-1-yl]-2-oxoethyl}-6-{[5-(trifluoromethyl)pyridin-2-yl]oxy}quinoline-2-carboxamide] | > 20 |
| O=C(NCC(=O)N1C[C@@H](O)[C@H](O)C1)c1ccc2cc(Oc3ccc(C(F)(F)F)cn3)ccc2n1 [Example 563, N-{2-[(3R,4R)-3,4-dihydroxypyrrolidin-1-yl]-2-oxoethyl}-6-{[5-(trifluoromethyl)pyridin-2-yl]oxy}quinoline-2-carboxamide] | > 20 |
| O=C(NCC(=O)N1C[C@H](O)C[C@H]1CO)c1ccc2cc(Oc3ccc(C(F)(F)F)cn3)ccc2n1 [Example 564, N-{2-[(2S,4R)-4-hydroxy-2-(hydroxymethyl)pyrrolidin-1-yl]-2-oxoethyl}-6-{[5-(trifluoromethyl)pyridin-2-yl]oxy}quinoline-2-carboxamide] | 16.6 |
| O=C(NCC(=O)N1CCC(F)(F)C1)c1ccc2cc(Oc3ccc(C(F)(F)F)cn3)ccc2n1 [Example 565, N-[2-(3,3-difluoropyrrolidin-1-yl)-2-oxoethyl]-6-{[5-(trifluoromethyl)pyridin-2-yl]oxy}quinoline-2-carboxamide] | 3.43 |

Same assay, conditions: read-out: FRET-Membrane Potential Nav1.7 IC50

| SMILES | IC50 [µM] |
| --- | --- |
| O=C(c1ccc2cc(Oc3ccc(C(F)(F)F)cn3)ccc2n1)N1CCC(N2CC(F)(F)C2)CC1 [Example 540, [4-(3,3-difluoroazetidin-1-yl)piperidin-1-yl](6-{[5-(trifluoromethyl)pyridin-2-yl]oxy}quinolin-2-yl)methanone] | 4.03 |
| O=C(c1ccc2cc(Oc3ccc(C(F)F)cn3)ccc2n1)N1CCN2CC(F)(F)C[C@H]2C1 [Example 542, [(8aS)-7,7-difluorohexahydropyrrolo[1,2-a]pyrazin-2(1H)-yl](6-{[5-(difluoromethyl)pyridin-2-yl]oxy}quinolin-2-yl)methanone] | 14.5 |
| CC[C@@H]1CN(C(=O)c2ccc3cc(Oc4ccc(C(F)(F)F)nc4)ccc3n2)CCN1 [Example 543, [(3R)-3-ethylpiperazin-1-yl](6-{[6-(trifluoromethyl)pyridin-3-yl]oxy}quinolin-2-yl)methanone] | 0.398 |
| O=C(NCCOC(F)(F)F)c1ccc2cc(Oc3ccc(C(F)(F)F)cn3)ccc2n1 [Example 547, N-[2-(trifluoromethoxy)ethyl]-6-{[5-(trifluoromethyl)pyridin-2-yl]oxy}quinoline-2-carboxamide] | 3.29 |
| O=C(NCC(O)C(F)(F)F)c1ccc2cc(Oc3ccc(C(F)(F)F)nc3)ccc2n1 (stereo not shown) [Example 551, N-(3,3,3-trifluoro-2-hydroxypropyl)-6-{[6-(trifluoromethyl)pyridin-3-yl]oxy}quinoline-2-carboxamide] | 2.77 |
| CC[C@H]1CN(C(=O)c2ccc3cc(Oc4ccc(C(F)(F)F)nc4)ccc3n2)CCN1 [Example 553, [(3S)-3-ethylpiperazin-1-yl](6-{[6-(trifluoromethyl)pyridin-3-yl]oxy}quinolin-2-yl)methanone] | 0.949 |
| O=C1CC(NC(=O)c2ccc3cc(Oc4ccc(C(F)(F)F)nc4)ccc3n2)C1 [Example 556, N-(3-oxocyclobutyl)-6-{[6-(trifluoromethyl)pyridin-3-yl]oxy}quinoline-2-carboxamide] | 2.81 |
| O=C(c1ccc2cc(Oc3ccc(C(F)(F)F)cn3)ccc2n1)N1CC(N2CCNCC2)C1 [Example 557, [3-(piperazin-1-yl)azetidin-1-yl](6-{[5-(trifluoromethyl)pyridin-2-yl]oxy}quinolin-2-yl)methanone] | 16.7 |
| O=C(c1ccc2cc(Oc3ccc(C(F)F)cn3)ccc2n1)N1CCNC2(CC2)C1 [Example 558, 4,7-diazaspiro[2.5]oct-7-yl(6-{[5-(difluoromethyl)pyridin-2-yl]oxy}quinolin-2-yl)methanone] | 4.49 |
| O=C(NCC(=O)N1CC[C@@H](O)C1)c1ccc2cc(Oc3ccc(C(F)(F)F)cn3)ccc2n1 [Example 559, N-{2-[(3R)-3-hydroxypyrrolidin-1-yl]-2-oxoethyl}-6-{[5-(trifluoromethyl)pyridin-2-yl]oxy}quinoline-2-carboxamide] | 3.02 |
| O=C(NCC(=O)N1CC[C@H](O)C1)c1ccc2cc(Oc3ccc(C(F)(F)F)cn3)ccc2n1 [Example 560, N-{2-[(3S)-3-hydroxypyrrolidin-1-yl]-2-oxoethyl}-6-{[5-(trifluoromethyl)pyridin-2-yl]oxy}quinoline-2-carboxamide] | 2.87 |
| O=C(NCC(=O)N1CC(O)C1)c1ccc2cc(Oc3ccc(C(F)(F)F)cn3)ccc2n1 [Example 566, N-[2-(3-hydroxyazetidin-1-yl)-2-oxoethyl]-6-{[5-(trifluoromethyl)pyridin-2-yl]oxy}quinoline-2-carboxamide] | 2.37 |
